Laboratory results from publication PMC7315563, “Bioactive fluorenes. Part III: 2,7-dichloro-9H-fluorene-based thiazolidinone and azetidinone analogues as anticancer and antimicrobial against multidrug resistant strains agents” (BMC Chemistry, 2020).
Values after ≈ are worked out from the molar mass of the structure shown.

Columns and labels:
Type in all cases: cell-based
[1] = tested on: E. coli; test: MIC by broth microdilution method (resazurin end point); settings: Escherichia coli, 24 h at 37 °C
Protocol: (§1) Determination of Minimum inhibitory concentrations (MIC) of flourene derivatives was done using broth microdilution method. The procedure involved preparation of twofold dilutions of the fluorene derivatives ranging from (500–7.8 μg/mL) in sterile Mueller–Hinton broth inside the wells of 96-well microplate (Sarstedt, Germany). The inoculums of test strains prepared from fresh overnight cultures were adjusted to 0.5 McFarland standards, which equals to 1–2 × 10^8 CFU/mL for bacteria, the procedure was done according to CLSI 2012 [42]. […] For this assay the positive control agents were vancomycin (range: 0.7–50 μg/mL), gentamicin (range: 0.15–10 μg/mL) and the negative control was 1% DMSO.
(§2) For proper determination of the MIC end point resazurin dye has been used. A stock solution of resazurin sodium salt powder (Titan Biotech) was prepared at 0.02% (wt/vol) in distilled water, sterilized by filtration through a […] filter into a sterile light protected container then stored protected from light at 4 °C for up to 1 week, or at − […] for long term use, then 10–15% resazurin solution of the total volume in wells was added to each well and incubation for 1–4 h at 37 °C was done. A change in color from blue to pink indicates the growth of bacteria, and MIC was defined as the lowest concentration of the drug that prevented this change in color.

[2] = tested on: K. pneumoniae; test: as above; settings: Klebsiella pneumoniae, 24 h at 37 °C
Protocol: as §1, §2

[3] = tested on: P. aeruginosa; test: as above; settings: Pseudomonas aeruginosa, 24 h at 37 °C
Protocol: as §1, §2

[4] = tested on: Pseudomonas aeruginosa (P. aeruginosa), multidrug resistant clinical isolate; test: agar well diffusion assay; settings: 24 h, PC positive control Gentamicin 10 µg/mL
Summary of the method: (§3)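 Multidrug-resistant clinical isolates swabbed on Mueller–Hinton agar at about 1–5 × 10^5 CFU/mL; 0.5 cm wells received 50 μL compound at 500 μg/mL in 1% DMSO. Incubation 24 h, 37 °C for bacteria and C. albicans, 25 °C for Aspergillus; inhibition zone diameter measured in mm.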

[5] = tested on: Acinetobacter baumannii (A. baumannii), multidrug resistant clinical isolate; test: agar well diffusion assay; settings: 24 h, PC positive control Gentamicin 10 µg/mL
Summary of the method: as §3

[6] = tested on: Klebsiella pneumoniae (K. pneumoniae), multidrug resistant clinical isolate; test: agar well diffusion assay; settings: 24 h, PC positive control Gentamicin 10 µg/mL
Summary of the method: as §3

[7] = tested on: Escherichia coli (E. coli), multidrug resistant clinical isolate; test: agar well diffusion assay; settings: 24 h, PC positive control Gentamicin 10 µg/mL
Summary of the method: as §3

[8] = tested on: MRSA; test: MIC by broth microdilution method (resazurin end point); settings: Staphylococcus aureus, 24 h
Protocol: as §1, §2

[9] = tested on: S. aureus; test: as above; settings: Staphylococcus aureus, 24 h
Protocol: as §1, §2

[10] = tested on: Streptococcus pneumoniae (S. pneumoniae), multidrug resistant clinical isolate; test: agar well diffusion assay; settings: Streptococcus pneumoniae, 24 h, read-out: Mean zone of inhibition
Summary of the method: as §3

[11] = tested on: methicillin-resistant Staphylococcus aureus (MRSA); test: agar well diffusion assay; settings: Staphylococcus aureus, 24 h, read-out: Mean zone of inhibition
Summary of the method: as §3

[12] = tested on: Staphylococcus aureus (S. aureus), multidrug resistant clinical isolate; test: agar well diffusion assay; settings: Staphylococcus aureus, 24 h, read-out: Mean zone of inhibition
Summary of the method: as §3

[13] = tested on: Aspergillus flavus (A. flavus); test: agar well diffusion assay; settings: 24 h, PC positive control fluconazole 25 µg/mL
Summary of the method: as §3

[14] = tested on: Aspergillus niger (A. niger); test: agar well diffusion assay; settings: 24 h, PC positive control fluconazole 25 µg/mL
Summary of the method: as §3

[15] = tested on: Candida albicans (C. albicans); test: agar well diffusion assay; settings: 24 h, PC positive control fluconazole 25 µg/mL
Summary of the method: as §3

## CNC(C)C1CCC(N)C(OC2C(N)CC(N)C(OC3OCC(C)(O)C(NC)C3O)C2O)O1 (stereo not drawn) [Gentamicin, reference compound]
[1]
  MIC: 0.3 µg/mL (≈ 0.628 µM)
[2]
  MIC: 0.3 µg/mL (≈ 0.628 µM)
[3]
  MIC: 0.3 µg/mL (≈ 0.628 µM)
[4]
  zone of inhibition at 10 µg/mL: 30 mm
[5]
  zone of inhibition at 10 µg/mL: 20 mm
[6]
  zone of inhibition at 10 µg/mL: 20 mm
[7]
  zone of inhibition at 10 µg/mL: 28 mm

## CN[C@H](CC(C)C)C(=O)N[C@H]1C(=O)N[C@@H](CC(N)=O)C(=O)N[C@H]2C(=O)N[C@H]3C(=O)N[C@H](C(=O)N[C@H](C(=O)O)c4cc(O)cc(O)c4-c4cc3ccc4O)[C@H](O)c3ccc(c(Cl)c3)Oc3cc2cc(c3O[C@@H]2O[C@H](CO)[C@@H](O)[C@H](O)[C@H]2O[C@H]2C[C@](C)(N)[C@H](O)[C@H](C)O2)Oc2ccc(cc2Cl)[C@H]1O [Vancomycin, reference compound]
[8]
  MIC: 0.7 µg/mL (≈ 0.483 µM)
[9]
  MIC: 0.7 µg/mL (≈ 0.483 µM)
[10]
  zone of inhibition at 50 µg/mL: 20 mm
[11]
  zone of inhibition at 50 µg/mL: 26 mm
[12]
  zone of inhibition at 50 µg/mL: 28 mm

## OC(Cn1cncn1)(Cn1cncn1)c1ccc(F)cc1F [fluconazole]
[13]
  zone of inhibition at 25 µg/mL: 18 mm
[14]
  zone of inhibition at 25 µg/mL: 18 mm
[15]
  zone of inhibition at 25 µg/mL: 20 mm
